In assay [1] the target is Dihydroorotate dehydrogenase (quinone), mitochondrial (Homo sapiens, UniProt Q02127). The assay can be described thus: Inhibition of N-terminal His10-tagged human DHODH (Met30 to Arg396) expressed in Escherichia coli BL21 (DE3) using dihydroorotate as substrate measured every 30 secs for 6 mins by DCIP dye-based assay.
Assay [2] concerns the target T1, Dihydroorotate dehydrogenase (quinone), mitochondrial (Plasmodium falciparum, UniProt Q54A96).
T1 sequence (Q54A96 whole entry): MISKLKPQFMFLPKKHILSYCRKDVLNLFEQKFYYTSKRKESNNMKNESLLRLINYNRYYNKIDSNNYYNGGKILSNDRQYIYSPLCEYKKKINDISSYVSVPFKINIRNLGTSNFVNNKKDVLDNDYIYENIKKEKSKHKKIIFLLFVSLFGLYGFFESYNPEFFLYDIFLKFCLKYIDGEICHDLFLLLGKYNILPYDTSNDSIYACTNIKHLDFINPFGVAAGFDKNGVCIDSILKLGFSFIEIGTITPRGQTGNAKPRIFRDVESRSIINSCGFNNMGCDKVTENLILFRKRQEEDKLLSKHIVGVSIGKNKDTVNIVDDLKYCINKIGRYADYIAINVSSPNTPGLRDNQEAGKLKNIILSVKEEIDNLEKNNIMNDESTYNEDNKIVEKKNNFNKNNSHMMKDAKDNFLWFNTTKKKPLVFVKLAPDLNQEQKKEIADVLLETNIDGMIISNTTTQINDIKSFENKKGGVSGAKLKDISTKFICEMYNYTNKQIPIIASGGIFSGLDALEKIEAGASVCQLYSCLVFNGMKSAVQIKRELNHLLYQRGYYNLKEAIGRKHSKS
The assay is described as follows: Inhibition of Plasmodium falciparum DHODH (Phe158 to Ser569) expressed in Escherichia coli BL21 using dihydroorotate as substrate measured every 30 secs for 6 mins by DCIP dye-based assay.

Results on 8 molecules are retold here after BindingDB's records for doi:10.1021/jm400938g (State Key Laboratory of Bioreactor Engineering, 2013).

Molecules are shown by their SMILES.

Sequence of Dihydroorotate dehydrogenase (quinone), mitochondrial (Homo sapiens, UniProt Q02127) (Q02127 whole entry): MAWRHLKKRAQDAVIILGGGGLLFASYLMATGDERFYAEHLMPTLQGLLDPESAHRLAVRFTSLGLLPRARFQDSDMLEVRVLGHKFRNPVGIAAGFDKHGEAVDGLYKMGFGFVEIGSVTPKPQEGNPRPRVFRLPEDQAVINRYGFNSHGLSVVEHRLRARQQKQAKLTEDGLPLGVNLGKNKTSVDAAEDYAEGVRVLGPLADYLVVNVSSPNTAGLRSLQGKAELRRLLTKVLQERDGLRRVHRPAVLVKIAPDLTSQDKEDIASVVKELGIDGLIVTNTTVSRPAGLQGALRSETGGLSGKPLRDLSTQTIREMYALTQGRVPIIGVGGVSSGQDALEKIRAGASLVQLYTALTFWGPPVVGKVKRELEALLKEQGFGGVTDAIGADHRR

`Cc1ccc(Nc2scc(O)c2C(N)=O)cc1C`: the IC50 in assay [1] and in assay [2] was above 50 µM each time.
In the case of `CCOC(=O)c1c(O)csc1Nc1ccc(Br)cc1C`, the IC50 in assay [1] and in assay [2] was above 50 µM throughout.
Consider `O=C(NCC1CC1)c1c(O)csc1Nc1ccc2ccccc2c1`, for which the concentration for half-maximal inhibition (IC50) in assay [1] and in assay [2] was above 50 µM throughout.
Regarding `CCOC(=O)c1c(O)csc1Nc1ccccc1`, the 50% inhibitory concentration (IC50) in assay [1] and in assay [2] was above 50 µM throughout.
For `Cc1ccc(Nc2scc(O)c2C(=O)O)cc1C`, the IC50 in assay [1] and in assay [2] was above 50 µM each time.
As for `CCCCNC(=O)c1c(O)csc1Nc1ccc2ccccc2c1`, the half-inhibitory concentration (IC50) in assay [1] and in assay [2] was above 50 µM throughout.
Consider `CCCNC(=O)c1c(O)csc1Nc1ccc2ccccc2c1`, for which the half-inhibitory concentration (IC50) in assay [1] and in assay [2] was above 50 µM each time.
On to `CCOC(=O)c1c(O)csc1Nc1cccc(C(F)(F)F)c1`, for which the IC50 in assay [1] and in assay [2] was above 50 µM in each case.
